According to PubChem BioAssay (NCI):
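Here, GI50 denotes the concentration required for 50% inhibition of growth. TGI: total growth inhibition.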

Experiments:
Test in all cases: DTP human tumour cell line panel, 384-well format; in the data active = GI50 below about 0.43 µM; inactive = the rest
[1] = test system: IGROV1 ovarian
[2] = test system: RXF 393 renal
[3] = test system: A498 renal
[4] = test system: NCI/ADR-RES ovarian
[5] = test system: DU-145 prostate
[6] = test system: SF-295 CNS
[7] = test system: MDA-MB-231 breast
[8] = test system: SK-MEL-2 melanoma
[9] = test system: HS 578T breast
[10] = test system: OVCAR-8 ovarian
[11] = test system: SN12C renal
[12] = test system: SW-620 colon
[13] = test system: SK-MEL-28 melanoma

CCS(=O)(=O)N1CCC(C(C)n2c(C)c(C(=O)NCc3c(OC)cc(C)[nH]c3=O)c3ccccc32)CC1 (stereo unspecified)
inactive: GI50 [1] > 100 µM | GI50 [2] > 100 µM | GI50 [3] > 100 µM | GI50 [4] > 100 µM | GI50 [5] > 100 µM | GI50 [6] > 100 µM | GI50 [7] > 100 µM | GI50 [8] > 100 µM | GI50 [9] > 100 µM | GI50 [10] > 100 µM | GI50 [11] > 100 µM | GI50 [12] > 100 µM | GI50 [13] > 100 µM
> 100 µM: TGI [1] | TGI [2] | TGI [3] | TGI [4] | TGI [5] | TGI [6] | TGI [7] | TGI [8] | TGI [9] | TGI [10] | TGI [11] | TGI [12] | TGI [13]
